Test results from PMC10022191, “Safety, tolerability, pharmacokinetics, and antiviral activity of the novel core protein allosteric modulator ZM-H1505R (Canocapavir) in chronic hepatitis B patients: a randomized multiple-dose escalation trial” (BMC Medicine, 2023).

Assay: phase 1b trial: adverse reactions and tolerability in CHB patients
Type: in vivo, human
Conditions: 28 days
Description: This was a randomized, open-label, placebo-controlled, phase 1b study (Clinical Trial Registration Number: NCT05470829; Chinese Clinical Trial Registration Number: CTR20210686), which was conducted at the Phase I Clinical Research Center, The First Hospital of Jilin University (Jilin, China), during the period from May to November of 2021. In order to minimize the safety risk of Canocapavir, an adaptive ascending dosing strategy was adopted for Canocapavir treatment in this study. The second and third assigned doses were initiated only after the safety data from the previous dose was reviewed and determined to be safe by the Principal Investigator and the Sponsor on day 8 postdosing (post drug administration days). Canocapavir was administered at the Clinical Research Center on days 1–8 and day 28 and at home on days 9–27 under the same conditions (fixed administration time and fasting condition). Patients were required to visit the facility for follow-up on days 15, 22, 27, 43 ± 1, and 57 ± 2 postdosing. The study protocol and informed consent forms were prepared according to the principles of the Declaration of Helsinki. The study protocol was approved by the Institutional Review Board of the First Hospital of Jilin University (approval number: 20Y201-006). All recruited patients provided written informed consent before participating in any study-related procedures.
A total of 30 CHB patients were recruited in this study and were randomly assigned into three cohorts (N = 10, each). In these three cohorts, the patients (in a ratio of 4:1) received 50, 100, or 200 mg of Canocapavir or placebo once a day for 28 consecutive days under fasting conditions, followed by a 28-day follow-up (Fig. 1). The patients, care providers, and those assessing outcomes were blinded during the study. This random process was completed in an electronic data capture system, and the details are shown in Additional file 1.
To examine possible adverse events (AEs) and adverse reactions (an adverse event is definitely, probably, or possibly related to the drug) in this study, the recruited patients underwent regular clinical laboratory testing, 12-lead electrocardiograms, examination of vital signs, abdominal ultrasound, and regular physical examinations, using the baseline data as a control. The severity of AEs and laboratory abnormalities were graded according to the Common Terminology Criteria for Adverse Events (CTCAE), version 5.0, which defines toxicity criteria. The AEs were coded using the Medical Dictionary for Regulatory Activities, version 24.1 (McLean, VA, USA).

## O=C1CO[C@H](c2cn(-c3ccc(Br)cc3)nc2-c2ccc(F)cc2)N1CCc1ccc2[nH]c(=O)[nH]c2c1 [Canocapavir]
50 mg q.d.
  Adverse reactions, grade I, number of subjects: 2 n
  Adverse reactions, grade I, percent of subjects: 25.00%
  Adverse reactions, grade II, number of subjects: 0 n
  Adverse reactions, grade II, percent of subjects: 0%
  Adverse reactions, grade III, number of subjects: 1 n
  Adverse reactions, grade III, percent of subjects: 12.50%
  Adverse reactions, total (all grades), number of subjects: 3 n
  Adverse reactions, total (all grades), percent of subjects: 37.5%
  Decreased neutrophil count, cases: 1 case
  Decreased neutrophil count, grade II, number of subjects: 0 n
  Decreased neutrophil count, grade II, percent of subjects: 0%
  Decreased neutrophil count, grade III, percent of subjects: 12.50%
  Decreased neutrophil count, number of subjects (%): 1 (12.5) n (%)
  Decreased platelet count, cases: 0 case
  Decreased platelet count, grade I, number of subjects: 0 n
  Decreased platelet count, grade I, percent of subjects: 0%
  Decreased platelet count, number of subjects (%): 0 (0) n (%)
  Decreased serum phosphorus, cases: 0 case
  Decreased serum phosphorus, grade I, number of subjects: 0 n
  Decreased serum phosphorus, grade I, percent of subjects: 0%
  Decreased serum phosphorus, number of subjects (%): 0 (0) n (%)
  Decreased white blood cell count, cases: 1 case
  Decreased white blood cell count, grade II, percent of subjects: 12.50%
  Decreased white blood cell count, number of subjects (%): 1 (12.5) n (%)
  Hypertriglyceridemia, cases: 0 case
  Hypertriglyceridemia, grade III, number of subjects: 0 n
  Hypertriglyceridemia, grade III, percent of subjects: 0%
  Hypertriglyceridemia, number of subjects (%): 0 (0) n (%)
  Increased alanine aminotransferase, cases: 2 case
  Increased alanine aminotransferase, grade I, number of subjects: 2 n
  Increased alanine aminotransferase, grade I, percent of subjects: 25.00%
  Increased alanine aminotransferase, grade II, number of subjects: 0 n
  Increased alanine aminotransferase, grade II, percent of subjects: 0%
  Increased alanine aminotransferase, number of subjects (%): 2 (25) n (%)
  Increased aspartate aminotransferase, cases: 1 case
  Increased aspartate aminotransferase, grade I, number of subjects: 1 n
  Increased aspartate aminotransferase, grade I, percent of subjects: 12.50%
  Increased aspartate aminotransferase, grade II, number of subjects: 0 n
  Increased aspartate aminotransferase, grade II, percent of subjects: 0%
  Increased aspartate aminotransferase, number of subjects (%): 1 (12.5) n (%)
  Increased bilirubin, cases: 0 case
  Increased bilirubin, grade I, number of subjects: 0 n
  Increased bilirubin, grade I, percent of subjects: 0%
  Increased bilirubin, number of subjects (%): 0 (0) n (%)
  Increased creatinine, cases: 1 case
  Increased creatinine, grade I, number of subjects: 1 n
  Increased creatinine, grade I, percent of subjects: 12.50%
  Increased creatinine, number of subjects (%): 1 (12.5) n (%)
  Increased γ-glutamyltransferase, cases: 0 case
  Increased γ-glutamyltransferase, grade I, number of subjects: 0 n
  Increased γ-glutamyltransferase, grade I, percent of subjects: 0%
  Increased γ-glutamyltransferase, number of subjects (%): 0 (0) n (%)
  Rash, cases: 0 case
  Rash, grade I, number of subjects: 0 n
  Rash, grade I, percent of subjects: 0%
  Rash, number of subjects (%): 0 (0) n (%)
  Total adverse reactions, cases: 6 case
  Total adverse reactions, number of subjects (%): 3 (37.5) n (%)
100 mg q.d.
  Adverse reactions, grade I, number of subjects: 4 n
  Adverse reactions, grade I, percent of subjects: 50.00%
  Adverse reactions, grade II, number of subjects: 1 n
  Adverse reactions, grade II, percent of subjects: 12.50%
  Adverse reactions, grade III, number of subjects: 0 n
  Adverse reactions, grade III, percent of subjects: 0%
  Adverse reactions, total (all grades), number of subjects: 5 n
  Adverse reactions, total (all grades), percent of subjects: 62.5%
  Decreased neutrophil count, cases: 1 case
  Decreased neutrophil count, grade II, percent of subjects: 12.50%
  Decreased neutrophil count, grade III, number of subjects: 0 n
  Decreased neutrophil count, grade III, percent of subjects: 0%
  Decreased neutrophil count, number of subjects (%): 1 (12.5) n (%)
  Decreased platelet count, cases: 1 case
  Decreased platelet count, grade I, number of subjects: 1 n
  Decreased platelet count, grade I, percent of subjects: 12.50%
  Decreased platelet count, number of subjects (%): 1 (12.5) n (%)
  Decreased serum phosphorus, cases: 0 case
  Decreased serum phosphorus, grade I, number of subjects: 0 n
  Decreased serum phosphorus, grade I, percent of subjects: 0%
  Decreased serum phosphorus, number of subjects (%): 0 (0) n (%)
  Decreased white blood cell count, cases: 1 case
  Decreased white blood cell count, grade II, percent of subjects: 12.50%
  Decreased white blood cell count, number of subjects (%): 1 (12.5) n (%)
  Hypertriglyceridemia, cases: 0 case
  Hypertriglyceridemia, grade III, number of subjects: 0 n
  Hypertriglyceridemia, grade III, percent of subjects: 0%
  Hypertriglyceridemia, number of subjects (%): 0 (0) n (%)
  Increased alanine aminotransferase, cases: 3 case
  Increased alanine aminotransferase, grade I, number of subjects: 3 n
  Increased alanine aminotransferase, grade I, percent of subjects: 37.50%
  Increased alanine aminotransferase, grade II, number of subjects: 0 n
  Increased alanine aminotransferase, grade II, percent of subjects: 0%
  Increased alanine aminotransferase, number of subjects (%): 3 (37.5) n (%)
